Measurements from patent publication US9573920B2, “Compound, medicine, anti-inflammatory, cosmetic, food and drink, and method for producing compound” (Amino Up Chemical Co., Ltd., priority 2013, dated 2017).

Assays:
[1] = test system: VEGF (VEGF-A/Vasculotropin); assay: cytokine/chemokine array (in vitro), VEGF; format: cell-based, rat; conditions: (+) IL-1β 1 nM, Pa5′ 100 μM
Procedure: (§1) In like manner with Example 4, liver cells were isolated from male Wistar rats by a collagenase perfusion method. The isolated liver cells were suspended in a medium (similar to that in Example 4) at 1.2×10^6 cells/mL, seeded in 35 mm plastic dishes (similar to those in Example 4) (1 mL/dish), and cultured in an incubator with 5% CO2 at 37° C. After 5 hours, the medium was replaced with fresh WE free of any serum and hormone, and the cells were cultured overnight until before use of the cells for an experiment.
(§2) On day 1 after the start of the culture, cells were subjected to replacement with fresh WE free of any serum and hormone, and IL-1β (similar to that in Example 4), and Pa5 extracted with methanol in Example 1 or Pa5′ extracted with methanol in Example 2 were added to the medium. The concentrations of IL-1β, Pa5, and Pa5′ in each medium were 1 nM, 20 μM, and 100 μM, respectively (Table 1). Then, the cells were cultured at 37° C., and the medium was collected 3 hours after the start of the culture. The collected medium was centrifuged for 1 minute at 5000 rpm to remove cellular debris, and the supernatant was used in an assay. The supernatant was preserved at −80° C. until performing the assay.
(§3) The productions of the various inflammatory cytokines/chemokines were measured according to an accompanying protocol using Rat Cytokine Antibody Array (R&D Systems) (http://www.rndsystems.com/product_detail_objectname_ratcytokinearray.aspx) capable of detecting 29 kinds of cytokines/chemokines in Proteome Profiler® Antibody Array. In the measurement, 1 mL of the supernatant of the medium obtained as described above was used.
(§4) In the above-described method, the 29 kinds of the cytokines/chemokines can be detected at once, and chemiluminescence on the filter of Proteome Profiler Antibody Array increases in proportion to the amount of each cytokine/chemokine. Thus, the chemiluminescence on the filter of Proteome Profiler Antibody Array was detected with LAS3000mini (GE Healthcare), subjected to densitometry analysis, and converted into a numeric value. The densitometry analysis was carried out with reference to http://www.hm6.aitai.ne.jp/˜maxcat/imageJ/technique.html#gels (the heading of “Analyzing Electrophoretic Gels”) using ImageJ software.

MIG (CXCL9) = assay: cytokine/chemokine array (in vitro), MIG; format: cell-based, rat; conditions: (+) IL-1β 1 nM, Pa5′ 100 μM
Procedure: as §1, §2, §3, §4

sICAM-1 (CD54) = assay: cytokine/chemokine array (in vitro), sICAM-1; format: cell-based, rat; conditions: (+) IL-1β 1 nM, Pa5′ 100 μM
Procedure: as §1, §2, §3, §4

IL-17 = assay: cytokine/chemokine array (in vitro), IL-17; format: cell-based, rat; conditions: Pa5′ 100 μM
Procedure: as §1, §2, §3, §4

Fractalkine (CX3CL1) = assay: cytokine/chemokine array (in vitro), Fractalkine; format: cell-based, rat; conditions: Pa5′ 100 μM
Procedure: as §1, §2, §3, §4

CINC-2α/β = assay: cytokine/chemokine array (in vitro), CINC-2α/β; format: cell-based, rat; conditions: (+) IL-1β 1 nM, Pa5′ 100 μM
Procedure: as §1, §2, §3, §4

CINC-3 = assay: cytokine/chemokine array (in vitro), CINC-3; format: cell-based, rat; conditions: (+) IL-1β 1 nM, Pa5′ 100 μM
Procedure: as §1, §2, §3, §4

Thymus Chemokine (CXCL7) = assay: cytokine/chemokine array (in vitro), Thymus Chemokine; format: cell-based, rat; conditions: Pa5′ 100 μM
Procedure: as §1, §2, §3, §4

[2] = test system: nitrogen monoxide (NO) production due to IL-1β; assay: NO production inhibitory action in IL-1β-stimulated rat liver cells (Griess method); format: cell-based; conditions: IL-1β 1 nM, 8 hours
Procedure: Liver cells were isolated from male Wistar rats (200 to 250 g, Charles River) by a collagenase perfusion method (collagenase: Wako Pure Chemicals). The isolated liver cells were suspended in a medium at 6×10^5 cells/mL, seeded in 35 mm plastic dishes (Falcon Plastic) (2 mL/dish), and cultured in an incubator with 5% CO2 at 37° C. Williams' Medium E (WE) containing 10% newborn calf serum, HEPES (5 mM), penicillin (100 U/mL), streptomycin (0.1 mg/mL), dexamethasone (10 nM), and insulin (10 nM) was used as the medium. After 5 hours, the medium was replaced with fresh WE free of any serum and hormone, and the cells were cultured overnight until before use of the cells for an experiment.
On day 1 after the start of the culture, cells were subjected to replacement with fresh WE free of any serum and hormone, and recombinant rat IL-1β (purity of 97% or more) (PeproTech, Rocky Hill, N.J., USA), and Pa5 extracted with methanol in Example 1 or negletein in the comparative example were added to the medium. In each medium, the concentration of IL-1β was 1 nM, the concentrations of Pa5 were 5, 10, and 20 μM, and the concentrations of negletein were 10, 20, and 40 μM (FIG. 1). The amount of NO in each medium was measured 8 hours after the addition of IL-1β, and Pa5 or negletein by a Griess method (Green L C et al, Anal Biochem 1982; 126: 131-138). More specifically, the amount of nitrite (stable metabolite of NO) in each medium was measured.
Liver cells originated from rats were cultured in like manner with Example 4. On day 1 after the start of the culture, the cells were subjected to replacement with fresh WE free of any serum and hormone, and recombinant rat IL-1β (similar to that in Example 4) and Pa9 extracted with methanol in Example 3 were added to the medium. In each medium, the concentration of IL-1β was 1 nM, and the concentrations of Pa9 were 10 μM, 50 μM, and 100 μM (FIG. 5). The amount of NO in each medium was measured 8 hours after the addition of IL-1β and Pa9 in like manner with Example 4.

[3] = (+) IL-1β 1 nM, 3 hours, (+) alone = 100.0
[4] = (+) IL-1β 1 nM, medium at 3 hours
[5] = rat liver cells, IL-1β 1 nM, 3 hours

COc1cc(O)c2c(c1O)OC(c1ccccc1)CC2=O (stereo not shown) [Pa5′, 5,8-dihydroxy-7-methoxyflavanone]
VEGF (VEGF-A/Vasculotropin) (%) ([1]; 3 hours, (+) alone = 100.0): 109.7% | VEGF (VEGF-A/Vasculotropin) chemiluminescence densitometry, Average ([1]; medium at 3 hours): 896.7 | VEGF (VEGF-A/Vasculotropin) chemiluminescence densitometry, first value ([1]; medium at 3 hours): 875.1 | VEGF (VEGF-A/Vasculotropin) chemiluminescence densitometry, second value ([1]; medium at 3 hours): 918.4 | MIG (CXCL9) (%) (MIG (CXCL9); 3 hours, (+) alone = 100.0): 86.8% | MIG (CXCL9) chemiluminescence densitometry, Average (MIG (CXCL9); medium at 3 hours): 666.4 | MIG (CXCL9) chemiluminescence densitometry, first value (MIG (CXCL9); medium at 3 hours): 672.8 | MIG (CXCL9) chemiluminescence densitometry, second value (MIG (CXCL9); medium at 3 hours): 660.1 | sICAM-1 (CD54) (%) (sICAM-1 (CD54); 3 hours, (+) alone = 100.0): 68.4% | sICAM-1 (CD54) chemiluminescence densitometry, Average (sICAM-1 (CD54); medium at 3 hours): 257.3 | sICAM-1 (CD54) chemiluminescence densitometry, first value (sICAM-1 (CD54); medium at 3 hours): 250.3 | sICAM-1 (CD54) chemiluminescence densitometry, second value (sICAM-1 (CD54); medium at 3 hours): 264.3 | IL-17 (%) (IL-17; [3]): 29.6% | IL-17 chemiluminescence densitometry, Average (IL-17; [4]): 36.7 | IL-17 chemiluminescence densitometry, first value (IL-17; [4]): 6.1 | IL-17 chemiluminescence densitometry, second value (IL-17; [4]): 67.2 | induction of IL-17 (IL-17; [5]): strongly inhibit | Fractakine (CX3CL1) (%) (Fractalkine (CX3CL1); [3]): 42.7% | Fractakine (CX3CL1) chemiluminescence densitometry, Average (Fractalkine (CX3CL1); [4]): 310.1 | Fractakine (CX3CL1) chemiluminescence densitometry, first value (Fractalkine (CX3CL1); [4]): 287.0 | Fractakine (CX3CL1) chemiluminescence densitometry, second value (Fractalkine (CX3CL1); [4]): 333.3 | induction of fractalkine (CX3CL1) (Fractalkine (CX3CL1); [5]): strongly inhibit | CINC-2α/β (%) (CINC-2α/β; 3 hours, (+) alone = 100.0): 96.8% | CINC-2α/β chemiluminescence densitometry, Average (CINC-2α/β; medium at 3 hours): 5839.6 | CINC-2α/β chemiluminescence densitometry, first value (CINC-2α/β; medium at 3 hours): 5944.2 | CINC-2α/β chemiluminescence densitometry, second value (CINC-2α/β; medium at 3 hours): 5735.0 | CINC-3 (%) (CINC-3; 3 hours, (+) alone = 100.0): 60.8% | CINC-3 chemiluminescence densitometry, Average (CINC-3; medium at 3 hours): 1846.9 | CINC-3 chemiluminescence densitometry, first value (CINC-3; medium at 3 hours): 1849.2 | CINC-3 chemiluminescence densitometry, second value (CINC-3; medium at 3 hours): 1844.7 | Thymus Chemokine (CXCL7) (%) (Thymus Chemokine (CXCL7); [3]): 23.1% | Thymus Chemokine (CXCL7) chemiluminescence densitometry, Average (Thymus Chemokine (CXCL7); [4]): 73.0 | Thymus Chemokine (CXCL7) chemiluminescence densitometry, first value (Thymus Chemokine (CXCL7); [4]): 62.8 | Thymus Chemokine (CXCL7) chemiluminescence densitometry, second value (Thymus Chemokine (CXCL7); [4]): 83.2 | induction of thymus chemokine (CXCL7) (Thymus Chemokine (CXCL7); [5]): strongly inhibit

O=c1ccc2cc(O)c(O)cc2o1 [Pa9, esculetin]
IC50 ([2]; nitrite by Griess method, read-out: IC50 value (drug concentration at NO production of 50%)): 32 µM | production of NO due to IL-1β ([2]; Pa9 10, 50, 100 μM): dose-dependently inhibited
